Key:
Experiment in all cases: relative viability (nuclei count vs DMSO), 5 days (fraction); higher = more cells survive
[1] = test system: NCI-H650
Summary of the method: (§1)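 Lung cancer cell lines in 1536-well plates were dosed by pin tool the day after seeding, either with one drug alone or with a fixed anchor-drug dose plus five library-drug doses (not always all listed) in √10 steps. After 5 days, cells were fixed and their nuclei stained in one step (final 0.05% Triton X-100, 1% formaldehyde, 1 ug/ml Hoechst), then counted on 4× images. Relative viability is the nuclei count in treated wells divided by that in vehicle wells. Values are medians of duplicate plates.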

[2] = test system: NCI-H23
Summary of the method: as §1

[3] = test system: LOU-NH91
Summary of the method: as §1

[4] = test system: NCI-H838
Summary of the method: as §1

[5] = test system: NCI-H1395
Summary of the method: as §1

[6] = test system: NCI-H2009
Summary of the method: as §1

[7] = test system: NCI-H1666
Summary of the method: as §1

[8] = test system: NCI-H727
Summary of the method: as §1

[9] = test system: NCI-H596
Summary of the method: as §1

[10] = test system: HARA
Summary of the method: as §1

[11] = test system: NCI-H441
Summary of the method: as §1

[12] = test system: LCLC-103H
Summary of the method: as §1

[13] = test system: NCI-H2126
Summary of the method: as §1

[14] = test system: EMC-BAC-2
Summary of the method: as §1

[15] = test system: NCI-H2023
Summary of the method: as §1

[16] = test system: NCI-H1993
Summary of the method: as §1

[17] = test system: NCI-H3122
Summary of the method: as §1

[18] = test system: NCI-H647
Summary of the method: as §1

[19] = test system: HCC-44
Summary of the method: as §1

[20] = test system: 201T
Summary of the method: as §1

[21] = test system: NCI-H2347
Summary of the method: as §1

[22] = test system: NCI-H2087
Summary of the method: as §1

[23] = test system: BEN
Summary of the method: as §1

## O=C(O)c1ccc(-c2c[nH]c3ncc(-c4ccccc4)cc23)cc1C1CCCC1 + Cc1cc(Nc2cc(N3CCN(C)CC3)nc(Sc3ccc(NC(=O)C4CC4)cc3)n2)n[nH]1 [Tozasertib] (partner 0.1 µM)
[1]; first compound 0.04 µM
  relative viability: 0.706
[1]; first compound 0.1265 µM
  relative viability: 0.691
[1]; first compound 0.4 µM
  relative viability: 0.641
[1]; first compound 1.265 µM
  relative viability: 0.351
[2]; first compound 0.04 µM
  relative viability: 0.355
[2]; first compound 0.1265 µM
  relative viability: 0.369
[2]; first compound 0.4 µM
  relative viability: 0.364
[2]; first compound 1.265 µM
  relative viability: 0.353
[3]; first compound 0.04 µM
  relative viability: 0.584
[3]; first compound 0.1265 µM
  relative viability: 0.688
[3]; first compound 0.4 µM
  relative viability: 0.616
[3]; first compound 1.265 µM
  relative viability: 0.526
[4]; first compound 0.04 µM
  relative viability: 0.291
[4]; first compound 0.1265 µM
  relative viability: 0.274
[4]; first compound 0.4 µM
  relative viability: 0.232
[4]; first compound 1.265 µM
  relative viability: 0.229
[5]; first compound 0.04 µM
  relative viability: 0.818
[5]; first compound 0.1265 µM
  relative viability: 0.793
[5]; first compound 0.4 µM
  relative viability: 0.676
[5]; first compound 1.265 µM
  relative viability: 0.604
[6]; first compound 0.04 µM
  relative viability: 0.734
[6]; first compound 0.1265 µM
  relative viability: 0.776
[6]; first compound 0.4 µM
  relative viability: 0.681
[6]; first compound 1.265 µM
  relative viability: 0.564
[7]; first compound 0.04 µM
  relative viability: 0.627
[7]; first compound 0.1265 µM
  relative viability: 0.587
[7]; first compound 0.4 µM
  relative viability: 0.546
[7]; first compound 1.265 µM
  relative viability: 0.419
[8]; first compound 0.04 µM
  relative viability: 0.67
[8]; first compound 0.1265 µM
  relative viability: 0.533
[8]; first compound 0.4 µM
  relative viability: 0.407
[8]; first compound 1.265 µM
  relative viability: 0.578
[9]; first compound 0.04 µM
  relative viability: 0.863
[9]; first compound 0.1265 µM
  relative viability: 0.802
[9]; first compound 0.4 µM
  relative viability: 0.851
[9]; first compound 1.265 µM
  relative viability: 0.93
[10]; first compound 0.04 µM
  relative viability: 0.104
[10]; first compound 0.1265 µM
  relative viability: 0.0989
[10]; first compound 0.4 µM
  relative viability: 0.197
[10]; first compound 1.265 µM
  relative viability: 0.0904
[11]; first compound 0.04 µM
  relative viability: 0.71
[11]; first compound 0.1265 µM
  relative viability: 0.638
[11]; first compound 0.4 µM
  relative viability: 0.548
[11]; first compound 1.265 µM
  relative viability: 0.325
[12]; first compound 0.04 µM
  relative viability: 0.538
[12]; first compound 0.1265 µM
  relative viability: 0.552
[12]; first compound 0.4 µM
  relative viability: 0.4
[12]; first compound 1.265 µM
  relative viability: 0.392
[13]; first compound 0.04 µM
  relative viability: 0.84
[13]; first compound 0.1265 µM
  relative viability: 0.833
[13]; first compound 0.4 µM
  relative viability: 0.868
[13]; first compound 1.265 µM
  relative viability: 0.644
[14]; first compound 0.04 µM
  relative viability: 0.29
[14]; first compound 0.1265 µM
  relative viability: 0.283
[14]; first compound 0.4 µM
  relative viability: 0.272
[14]; first compound 1.265 µM
  relative viability: 0.272
[15]; first compound 0.04 µM
  relative viability: 0.374
[15]; first compound 0.1265 µM
  relative viability: 0.39
[15]; first compound 0.4 µM
  relative viability: 0.318
[15]; first compound 1.265 µM
  relative viability: 0.242
[16]; first compound 0.04 µM
  relative viability: 0.556
[16]; first compound 0.1265 µM
  relative viability: 0.604
[16]; first compound 0.4 µM
  relative viability: 0.55
[16]; first compound 1.265 µM
  relative viability: 0.606
[17]; first compound 0.04 µM
  relative viability: 0.568
[17]; first compound 0.1265 µM
  relative viability: 0.45
[17]; first compound 0.4 µM
  relative viability: 0.407
[17]; first compound 1.265 µM
  relative viability: 0.326
[18]; first compound 0.04 µM
  relative viability: 0.223
[18]; first compound 0.1265 µM
  relative viability: 0.381
[18]; first compound 0.4 µM
  relative viability: 0.337
[18]; first compound 1.265 µM
  relative viability: 0.22
[19]; first compound 0.04 µM
  relative viability: 1.16
[19]; first compound 0.1265 µM
  relative viability: 1.15
[19]; first compound 0.4 µM
  relative viability: 0.853
[19]; first compound 1.265 µM
  relative viability: 0.616
[20]; first compound 0.04 µM
  relative viability: 0.943
[20]; first compound 0.1265 µM
  relative viability: 0.973
[20]; first compound 0.4 µM
  relative viability: 0.893
[20]; first compound 1.265 µM
  relative viability: 0.771
[21]; first compound 0.04 µM
  relative viability: 0.606
[21]; first compound 0.1265 µM
  relative viability: 0.643
[21]; first compound 0.4 µM
  relative viability: 0.522
[21]; first compound 1.265 µM
  relative viability: 0.5
[22]; first compound 0.04 µM
  relative viability: 0.248
[22]; first compound 0.1265 µM
  relative viability: 0.29
[22]; first compound 0.4 µM
  relative viability: 0.227
[22]; first compound 1.265 µM
  relative viability: 0.186
[23]; first compound 0.04 µM
  relative viability: 0.603
[23]; first compound 0.1265 µM
  relative viability: 0.501
[23]; first compound 0.4 µM
  relative viability: 0.49
[23]; first compound 1.265 µM
  relative viability: 0.437

— the supplement of paper PMC10307832
